{
  "source": "paper PMC6508677",
  "about": "“Identification of druggable small molecule antagonists of the Plasmodium falciparum hexose transporter PfHT and assessment of ligand access to the glucose permeation pathway via FLAG-mediated protein engineering” (PLoS ONE, 2019)",
  "target": "T1, hGLUT8 (Homo sapiens, UniProt Q9NY64, E7R/E8R)",
  "T1 construct": "expressed in transfected cells; host or cells: HEK293 (HEK293-FLIP, native hGLUT1 knocked down)",
  "T1 sequence (Q9NY64 1-477 E7R/E8R)": "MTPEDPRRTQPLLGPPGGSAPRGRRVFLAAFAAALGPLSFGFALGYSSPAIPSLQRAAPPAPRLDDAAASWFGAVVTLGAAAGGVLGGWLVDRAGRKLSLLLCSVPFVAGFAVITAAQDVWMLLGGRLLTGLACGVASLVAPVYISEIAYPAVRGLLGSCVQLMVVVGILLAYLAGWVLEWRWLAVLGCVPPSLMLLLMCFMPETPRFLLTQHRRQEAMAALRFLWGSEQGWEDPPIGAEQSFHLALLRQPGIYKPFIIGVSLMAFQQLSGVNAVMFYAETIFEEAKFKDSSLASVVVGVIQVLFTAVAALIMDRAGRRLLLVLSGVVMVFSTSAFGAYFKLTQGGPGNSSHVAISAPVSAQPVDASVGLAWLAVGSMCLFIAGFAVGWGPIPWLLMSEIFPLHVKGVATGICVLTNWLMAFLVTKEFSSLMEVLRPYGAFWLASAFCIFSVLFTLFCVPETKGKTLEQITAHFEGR",
  "assay": "2-DG uptake by HEK293 cells overexpressing hGLUT8",
  "assay_type": "cell-based",
  "text": "Generation of HEK293 cells overexpressing PfHT and human GLUTs 1–4 were described elsewhere. Briefly, HEK293 cells were transfected with pcDNA3.1 FLII12Pglu-7006 (Addgene), containing the fluorescence resonance energy transfer (FRET) glucose sensor (HEK293-FLIP) and PfHT, human GLUT1 (hGLUT1), hGLUT2, hGLUT3, hGLUT4, hGLUT5 or hGLUT8 using Optifect (Life Technologies) according to manufacturer’s specifications. To increase retention of GLUT8 at the plasma membrane, the dileucine sorting signal E^7E^8XXXLL was modified to R^7R^8XXXLL as described in [17]. Stable transfectants were selected for G418 and hygromycin resistance to select for FRET sensor and hexose transporter, respectively. HEK293-FLIP cells were also used to generate cells stably transfected with FLAG-tagged PfHT (FTPfHT). FLAG tag ([…]) followed by a triple glycine linker and a tobacco etch virus (TEV) protease site (ENLYFQS) followed by a triple glycine linker was added to the N-terminus of PfHT via PCR [18] using Phusion Hot Start II High-Fidelity DNA Polymerase (Fisher Scientific). Single clones were selected by comparing their abilities to transport glucose as assayed via FRET and radiolabeled hexose uptake. In all cell lines, except for HEK293 cells overexpressing hGLUT1 and hGLUT5, native hGLUT1 was knocked down using shRNA as described elsewhere. Transcript levels of the individual GLUTs expressed in each cell line are as described in [13, 15] and in S1 Fig.\nGlucose uptake by P. falciparum was performed essentially as described. P. falciparum strain 3D7 was cultured in 100 mm tissue culture dishes (Techno Plastic Products) in a 2% suspension of human erythrocytes and RPMI 1640 medium until reaching > 7.5% parasitemia. Cells were pelleted via centrifugation and resuspended in RPMI 1640 medium. To determine the uptake of radiolabeled glucose into the parasite, parasites were isolated from infected erythrocytes by permeablization with saponin (0.05 w/v), followed by centrifugation, aspiration of supernatant and washing of the pellet 3X with saline solution (135 mM NaCl, 2 mM KCl, 25 mM HEPES, 0.2 mM glucose and 1 mM MgCl2; pH 7.1) to remove cellular debris. WU-1 or DMSO vehicle were added to 100 μl parasites (resuspended in saline) 5 min prior to the addition of 100 μl [^14C]2-DOG (0.2- μCi/ml final concentration). 2-DG uptake was stopped after 2 min by layering the entire reaction over 300 μl of an oil mixture (5:4 mix of dibutyl phthalate / dinonyl phthalate) in Eppendorf tubes and centrifuged at 15,850 × g for 2 mins. The ratio of the estimated intracellular concentration of radiolabel relative to the extracellular concentration were calculated as described. Uptake of radiolabeled hexose into HEK293 cells was measured in glucose-free HBSS as described previously. Briefly, cells were plated at 400,000 cells/well overnight at 37°C in 24-well plates pre-treated with PEI. After 30-min incubation at 37°C in glucose-free HBSS in the presence of vehicle or increasing concentrations of compound, 2-DG uptake was measured in glucose-free HBSS for 4 min at 37°C. Cultures were washed in ice-cold 1X PBS and lysed in 0.1% Triton X-100 in 1X PBS. Radiolabeled hexose uptake was determined by liquid scintillation counting (Ultima Gold, Thermo Fisher) and normalized to total protein per well. Uptake data are plotted as percent uptake relative to vehicle-treated cells. Kinetic analyses were performed using the indicated concentrations of substrate and WU-1, with quenching of uptake after 1 min incubation. Incubation times had been previously determined as being in the linear range of time-dependent radiolabeled hexose uptake (2 min for 2-DG uptake into freed parasites; 2 and 4 min for D-Frc and 2-DG uptake HEK cell lines, respectively). Data were fit by least squares nonlinear regression analysis using GraphPad Prism 6.0 software.",
  "note": "Values joined by “and” are separate entries in the source; they are usually repeats but may differ in a detail not shown here. Identical values can stand only once. Like-named read-outs stand apart in the source and are kept apart here.",
  "data": [
    {"smiles": "Cc1ccc(S(=O)(=O)CCNC(=O)c2c(-c3c(Cl)cccc3Cl)noc2C)cc1", "note": "[WU-1, 3-(2,6-dichlorophenyl)-5-methyl-N-[2-(4-methylbenzenesulfonyl)ethyl]-1,2-oxazole-4-carboxamide]", "values": [
      {"measurement": "IC50", "setting": "GLUT8, 2-DG Uptake, average of Expt 1-3, read-out: AVE IC50", "value": 25, "unit": "µM"},
      {"measurement": "IC50", "setting": "GLUT8, 2-DG Uptake, single experiments Expt 1-3, read-out: IC50", "value": "39.8 µM and 19.9 µM and 15.3 µM"},
      {"measurement": "IC50", "setting": "GLUT8 cell line, read-out: IC50, 2-DG uptake", "value": "25 ± 7.5", "unit": "µM"},
      {"measurement": "remaining activity at 0.001 µM", "setting": "HEK293, 4 min, GLUT8, concentration 0.001 µM, Expt 1-3, read-out: 2-DG Uptake AVE", "value": 100, "unit": "%"},
      {"measurement": "remaining activity at 0.3125 µM", "setting": "HEK293, 4 min, GLUT8, concentration 0.3125 µM, read-out: 2-DG Uptake AVE", "value": 104, "unit": "%"},
      {"measurement": "remaining activity at 0.625 µM", "setting": "HEK293, 4 min, GLUT8, concentration 0.6250 µM, read-out: 2-DG Uptake AVE", "value": 95.3, "unit": "%"},
      {"measurement": "remaining activity at 1.25 µM", "setting": "HEK293, 4 min, GLUT8, concentration 1.250 µM, read-out: 2-DG Uptake AVE", "value": 98.6, "unit": "%"},
      {"measurement": "remaining activity at 2.5 µM", "setting": "HEK293, 4 min, GLUT8, concentration 2.500 µM, read-out: 2-DG Uptake AVE", "value": 97.5, "unit": "%"},
      {"measurement": "remaining activity at 5 µM", "setting": "HEK293, 4 min, GLUT8, concentration 5.0 µM, read-out: 2-DG Uptake AVE", "value": 88, "unit": "%"},
      {"measurement": "remaining activity at 20 µM", "setting": "HEK293, 4 min, GLUT8, concentration 20 µM, read-out: 2-DG Uptake AVE", "value": 60.6, "unit": "%"},
      {"measurement": "remaining activity at 80 µM", "setting": "HEK293, 4 min, GLUT8, concentration 80 µM, read-out: 2-DG Uptake AVE", "value": 41.2, "unit": "%"},
      {"measurement": "remaining activity at 160 µM", "setting": "HEK293, 4 min, GLUT8, concentration 160 µM, read-out: 2-DG Uptake AVE", "value": 25.7, "unit": "%"},
      {"measurement": "remaining activity at 225 µM", "setting": "HEK293, 4 min, GLUT8, concentration 225 µM, read-out: 2-DG Uptake AVE", "value": 23.9, "unit": "%"},
      {"measurement": "Selectivity Index (PfHT over GLUT8), 2-DG", "setting": "calculated from IC50s", "value": 4.3}
    ]}
  ]
}
